This is an account of results in patent US5840893A, “Compounds for treating infectious diseases” (priority 1996, dated 1998).

Each structure is given as a SMILES string. Entries after “also recorded” stand apart in the source; their conditions may differ. Like-named read-outs stand apart in the source and are kept apart here.

As a reminder, the IC50 is the midpoint of a concentration-inhibition curve. For orientation: CL/F means the apparent clearance, not corrected for the fraction that reaches the circulation.

For data set [1], the system named is Plasmodium falciparum clone D10. Put plainly: Antimalarial activity in vitro, hypoxanthine incorporation, clone D10. Format: cell-based. Particulars: clone D10, n = 2, read-out: Pyrimethamine IC50. As for the experimental part: (§1) The antimalarial activity of the compounds was determined essentially as described in Desjardins et al. supra. Fifty Al of various concentrations of a compound of the invention, chloroquine, or pyrimethamine were added to the wells of microtiter plates, followed by 200 Al of ring-stage, synchronized, P. falciparum-infected erythrocytes (final hematocrit=1.5%, final parasitemia=1-5%). The plates were incubated for 24 hr in a candle jar kept at 37° C., and then 25 μl of [^3 H]-hypoxanthine (Amersham, Arlington Heights, Ill.; 2.5 μl Ci/well) was added. The plates were then incubated for a further 24 hr, before harvesting onto Unifilter-96 GF/C filter-microplates (Packard; Meriden, Conn.). Twenty-five μl of Microscint scintillation fluid (Packard) was added to each well of the filter-microplate, which was subsequently counted in a Top-count microplate scintillation counter (Packard). The percent of [^3 H] -hypoxanthine uptake relative to control infect-erythrocytes was used to determine the IC50 value for the compounds by non-linear regression for LD50 determination.

Data set [2] deals with Plasmodium falciparum clone Dd2. Put plainly: Antimalarial activity in vitro, hypoxanthine incorporation, clone Dd2. As to conditions: for IC50: Plasmodium falciparum. The data set is classed as cell-based. As for the experimental part:
as §1
The Dd2 clone of P. falciparum, which was both chloroquine and pyrimethamine resistant, was utilized to compare the antimalarial activity of the remaining CNI compounds (Table VIII).

Data set [3] concerns Plasmodium falciparum clone FCR-3. Description: Antimalarial activity in vitro, hypoxanthine incorporation, clone FCR-3. Format: cell-based. As to conditions: FCR3, clone FCR-3, n = 2, read-out: Pyrimethamine IC50. As for the experimental part:
as §1

The test system of data set [4] is Plasmodium falciparum clone HB3. Description: Antimalarial activity in vitro, hypoxanthine incorporation, clone HB3. The data set is classed as cell-based. As to conditions: clone HB3, n = 2, read-out: Pyrimethamine IC50. As for the experimental part: as §1
In data set [5] the test system is Plasmodium falciparum clone W2mef. Description: Antimalarial activity in vitro, hypoxanthine incorporation, clone W2mef. The data set is classed as cell-based. As to conditions: read-out: Pyrimethamine IC50. As for the experimental part:
as §1

For another data set, the system named is HIV-1. Description: Inhibition of HIV-1 replication in cultured macrophages (Table I). Format: cell-based. Particulars: Human immunodeficiency virus 1, Macrophage; 50% inhibition of viral growth, RT or p24, macrophages. As for the experimental part:
A quantitative measurement of the activity of the compounds of the invention to block the replication of HIV-1 in non-dividing cells can be determined by culture of a macrophage-tropic strain of HIV-1 on peripheral blood-derived macrophages. The cells are cultured for 5-6 days prior to infection in a medium consisting of DMEM supplemented with 10% type A/B human serum and 200 U/ml Macrophage Colony Stimulating Factor, with half the medium changed after 3 days, to reach a density of about 10^6 cells per 5 ml well. A macrophage-tropic viral stock may be grown on these cells. The concentration of infectious particles in the stock is estimated by measurement of p24 antigen concentration.
To test the effect of compounds of the invention on HIV- 1 infection in the above-described culture system, the medium is removed and replaced with medium containing HIV-1 at a concentration of 1 ng of p24 (10^4 TCID50 /ml (TCID=tissue culture infectious doses)) and a known concentration of the compound of the invention (the inhibitor). After 24 hours, the cultures are washed to remove non-adherent virus and the culture is re-fed with medium containing the inhibitor at the desired concentration. The amount of replication of HIV-1 is estimated by an assay of the reverse transcriptase activity or by an assay of the concentration of p24 antigen in the culture medium every 2-3 days throughout the post-infection period. In a preferred embodiment the anti-HIV potency of the candidate drug is measured by comparison of the concentration of reverse transcriptase (RT) or of p24 antigen in the medium of the treated and control cultures at the time of the peak of these values in non-treated control cultures, that is about day 5 or 6 post-infection. Repetition at various levels of inhibitor allows for the calculation of the concentration of inhibitor that achieves 50% inhibition of viral growth, IC50. Table I discloses the IC50 of various inhibitors.

The subject of a further data set is mice. Put plainly: Toxicity study: median lethal dose in mice, i.p. The data set is classed as in vivo. As for the experimental part:
The doses of compounds of the invention found to be lethal to 50% of the mice (LD50) were determined by intraperitoneal injection of groups of five animals with increasing doses of each compound. CNI-0294 was administered from 0, 2, 10, 20, 40, 80, 160, 320, 640, 1280 mg/kg in 0.5 ml of water/HCl; CNI-1594 at 0, 2.4, 5, 10, 20, 40, 80 mg/kg in 0.5 ml of water/HCl; CNI-1794 at 0, 20, 50, 80 mg/kg in 0.5 ml of water/HCl; and CNI-1894 at 0, 10, 20, 40, 80, 240, 480, 960 mg/kg in water/HCl. […] The percentage of animals in each group which died were utilized to calculate the LD50 by non-linear curve fitting with the Enzfit software (Elsevier Bioscience; Cambridge, UK) programmed with the Chou equation (Chou 1976, J Theor Biol 39:253-276)).
The compounds (FIGS. 4A-E), were screened for toxicity via a modified LD50 assay procedure as described above in an outbred strain of mice.

The next data set is described as follows: in vitro. Format: in vitro ADME, mouse (ND4 Swiss Webster). Particulars: for number of metabolites: mouse liver post-mitochondrial supernatant, NADPH; for metabolised at 1 h: mouse, liver post-mitochondrial supernatant, 60 min incubation, by peak area, read-out: drug altered (metabolic conversion). As for the experimental part: Several female ND4 Swiss Webster mice were euthanized by carbon dioxide inhalation and the livers excised and rinsed with ice cold phosphate buffered saline (pH 7.4). The livers were minced, gently homogenized in 50 mM phosphate buffer (pH 7.4) with a Dounce homogenizer, and centrifuged at 9600×g for 20 min. The post-mitochondrial supernatant was kept, glycerol added to 20%, and frozen at -70° C. in 1.0 ml aliquots until used. For each incubation, 1.0 ml of a 1.0 mg/ml drug solution was added to 3.0 ml of 50 mM phosphate buffer (pH 7.4), 1.0 ml of 2 mg/ml NADPH in 50 mM phosphate (pH 7.4), and 1.0 ml of the post-mitochondrial supernatant. Five hundred μl of each incubate was then immediately transferred to an ice-cold tube to provide the zero-time sample, and addition 500 μl aliquots removed to ice-cold tubes at 8, 15, 30, and 60 min. The samples were then extracted, and analyzed by HPLC as described in section 7.1. Control incubations were also performed where drug or post-mitochondrial supernatant was omitted. […] Peaks in the CNI compound incubations which increased over time, and were not present in control samples lacking the enzyme preparation were treated as putative metabolites.

For data set [6] the following is noted: for Clearance: Table IV, measured in a 25 gr mouse.
A short description of the next data set: in vivo. As to conditions: mouse, plasma, ip.
The mark [7] stands for this setting: DD2, read-out: IC50 ± standard deviation.

With `CCc1nc(N)nc(N)c1-c1ccc(Cl)cc1` [Pyrimethamine, reference compound], the IC50 in data set [1] is 171 ± 24.6 µM; in data set [2] (DD2, read-out: Pyrimethamine IC50) it was 104 ± 9.79 µM; in data set [3], 0.04 ± 0.01 µM; in [4], 8.97 ± 2.75 µM; in data set [5], 17.8 ± 13.5 µM.

Compound `CC(=O)c1cc(Nc2cc(C)nc(N)n2)cc(C(C)=O)c1` [Compound No. 11, 2-amino-4-(3,5-diacetylphenyl)amino-6-methylpyrimidine] displayed an IC50 in the data set with HIV-1 of 0.05 µM. In addition, in the data set on mice, the “LD50 (median lethal dose)” value is above 160 mg/kg and the tolerability entry was “also well tolerated”. Further, in the data set “in vitro”, the number of metabolites result is “three minor and one major metabolite”; the metabolised at 1 h was found to be 65.2%. For the same compound, the concentration for half-maximal inhibition (IC50) in [2] (setting [7]) worked out at 20.3 ± 1.62 µM. The “fold less active than CNI-0294” value in data set [2] (clone Dd2) is reported as “approximately 5 fold”. Also, in data set [6], the Clearance stood at 16.50 mL/min. In data set [6] (i.p., 50 mg/kg, water), the “A (zero time intercept, distribution phase)” value is 5.22 µg/mL; the “B (zero time intercept, elimination phase)” value was found to be 0.14 µg/mL; the t1/2α worked out at 0.38 h; the t1/2β amounted to 3.65 h. The same compound returned a α in data set [6] (i.p., 50 mg/kg, water) of 1.83 h⁻¹. Also, in data set [6] (oral 50 mg/kg), the “time drug was detectable in plasma” value is on record as “at least 6 hr”. This compound also showed a relative bioavailability in [6] (oral vs i.p.) of 15%. This compound yielded a Bioavaliability in [6] (oral, 50 mg/kg, water, AUCoral/AUCi.p.) of 0.15. Moreover, in data set [6] (single 50 mg/kg dose, AUCoral against AUCi.p.), the relative bioavailability is 15%. In “in vivo” (50 mg/kg), the apparent clearance (CL/F) was 16.5 mL/min and the k el was 5.28e-05 s⁻¹.

As for `CC(=O)c1cccc(Nc2cc(C)nc(N)n2)c1` [Compound No. 15, 4-(3-acetylphenyl)amino-2-amino-6-methylpyrimidine], in the data set with HIV-1, the IC50 came to 0.015 µM. In the data set on mice, the “LD50 (median lethal dose)” value amounted to 49.04 ± 0.08 mg/kg and the tolerability result is reported as “appreciably more lethal”. Also, the “signs and time of toxic reactions / death” value with mice (listed as CNI-1594) is “death occurring in minutes and the animals displaying signs of acute neurotoxicity; also recorded: suggested a lethal neurotoxicity”. In addition, in the data set “in vitro”, the number of metabolites entry is “three minor and one major metabolite”; the metabolised at 1 h worked out at 11.7%. Moreover, in [2] (setting [7]), the IC50 was found to be 23.7 ± 0.59 µM. For the same compound, the “IC50 relative to CNI-1194 and CNI-4594” value in [2] (clone Dd2) was “equal to that for CNI-1194 or CNI-4594”. In data set [6], this compound showed a Clearance of 26.40 mL/min. Also, in data set [6] (i.p., 20 mg/kg, water), the “A (zero time intercept, distribution phase)” value came to 1.10 µg/mL; the “B (zero time intercept, elimination phase)” value worked out at 0.01 µg/mL; the VD came to 39.60 L; the t1/2α was found to be 0.32 h. In data set [6] (i.p., 20 mg/kg, water), this compound returned a t1/2β of 17.33 h and a α of 2.14 h⁻¹. Also, in the data set “in vivo” (20 mg/kg), the CL/F was determined as 26.4 mL/min and the k el is 1.11e-05 s⁻¹.
